Results taken from patent US20200172491A1, “SUBSTITUTED 5-(HET-)ARYLPYRAZOLAMIDES AND SALTS THEREOF AND THEIR USE AS HERBICIDAL ACTIVE SUBSTANCES” (Bayer CropScience Aktiengesellschaft, priority 2017, published 2020).

Columns and labels:
Type in all cases: in vivo
Viola tricolor [1] = assay: Pre-emergence herbicidal action; settings: 320 g/ha, scored after about 3 weeks, 100% = plants have died, 0% = like control plants
Source text: (§1) Seeds of monocotyledonous and dicotyledonous weed plants and crop plants were placed in plastic or wood-fiber pots and covered with soil. The compounds of the invention, formulated in the form of wettable powders (WP) or as emulsion concentrates (EC), were then applied to the surface of the covering soil as aqueous suspension or emulsion with addition of 0.5% additive at a water application rate equivalent to 600 l/ha. After the treatment, the pots were placed in a greenhouse and kept under good growth conditions for the test plants. After about 3 weeks, the effect of the preparations is scored visually in comparison with untreated controls as percentages. For example, 100% activity=the plants have died, 0% activity=like control plants. Tables B7 to B11 below show the effects of selected compounds of the general formula (I) according to Table A1 at an application rate of 320 g/ha on various harmful plants, which were obtained by the aforementioned experimental procedure.

Matricaria inodora [2] = assay: Pre-emergence herbicidal action; settings: 320 g/ha, scored after about 3 weeks, 100% = plants have died, 0% = like control plants
Source text: as §1

Amaranthus retroflexus [3] = assay: Pre-emergence herbicidal action; settings: 320 g/ha, scored after about 3 weeks, 100% = plants have died, 0% = like control plants
Source text: as §1

Stellaria media [4] = assay: Pre-emergence herbicidal action; settings: 320 g/ha, scored after about 3 weeks, 100% = plants have died, 0% = like control plants
Source text: as §1

Viola tricolor [5] = assay: Post-emergence herbicidal action; settings: 320 g/ha, rated after about 3 weeks, 100% = plants have died, 0% = like control plants
Procedure: (§2) Seeds of monocotyledonous and dicotyledonous weeds and crop plants were placed in sandy loam in plastic or wood-fiber pots, covered with soil and cultivated in a greenhouse under controlled growth conditions. 2 to 3 weeks after sowing, the test plants were treated at the one-leaf stage. The compounds of the invention, formulated in the form of wettable powders (WP) or as emulsion concentrates (EC), were then sprayed onto the green parts of the plants as aqueous suspension or emulsion with addition of 0.5% additive at a water application rate of 600 l/ha (converted). After the test plants had been kept in the greenhouse under optimum growth conditions for about 3 weeks, the activity of the preparations was rated visually in comparison to untreated controls. For example, 100% activity=the plants have died, 0% activity=like control plants. Tables B1 to B6 below show the effects of selected compounds of the general formula (I) according to Table A1 at an application rate of 320 g/ha on various harmful plants, which were obtained by the aforementioned experimental procedure.

Veronica persica [6] = assay: Post-emergence herbicidal action; settings: 320 g/ha, rated after about 3 weeks, 100% = plants have died, 0% = like control plants
Procedure: as §2

Amaranthus retroflexus [7] = assay: Post-emergence herbicidal action; settings: 320 g/ha, rated after about 3 weeks, 100% = plants have died, 0% = like control plants
Procedure: as §2

Stellaria media [8] = assay: Post-emergence herbicidal action; settings: 320 g/ha, rated after about 3 weeks, 100% = plants have died, 0% = like control plants
Procedure: as §2

Veronica persica [9] = assay: Pre-emergence herbicidal action; settings: 320 g/ha, scored after about 3 weeks, 100% = plants have died, 0% = like control plants
Source text: as §1

Matricaria inodora [10] = assay: Post-emergence herbicidal action; settings: 320 g/ha, rated after about 3 weeks, 100% = plants have died, 0% = like control plants
Procedure: as §2

Ipomoea purpurea = assay: Post-emergence herbicidal action; settings: 320 g/ha, rated after about 3 weeks, 100% = plants have died, 0% = like control plants
Procedure: as §2

Row | SMILES | herbicidal activity on Viola tricolor (visual rating vs untreated controls) (Viola tricolor [1]) [%] | herbicidal activity on Matricaria inodora (visual rating vs untreated controls) (Matricaria inodora [2]) [%] | herbicidal activity on Amaranthus retroflexus (visual rating vs untreated controls) (Amaranthus retroflexus [3]) [%] | herbicidal activity on Stellaria media (visual rating vs untreated controls) (Stellaria media [4]) [%] | herbicidal activity on Viola tricolor (visual rating vs untreated controls) (Viola tricolor [5]) [%] | herbicidal activity on Veronica persica (visual rating vs untreated controls) (Veronica persica [6]) [%] | herbicidal activity on Amaranthus retroflexus (visual rating vs untreated controls) (Amaranthus retroflexus [7]) [%] | herbicidal activity on Stellaria media (visual rating vs untreated controls) (Stellaria media [8]) [%] | herbicidal activity on Veronica persica (visual rating vs untreated controls) (Veronica persica [9]) [%] | herbicidal activity on Matricaria inodora (visual rating vs untreated controls) (Matricaria inodora [10]) [%] | herbicidal activity on Ipomoea purpurea (visual rating vs untreated controls) (Ipomoea purpurea) [%]
1 | Cc1nn(C)c(-c2cc(F)ccc2Cl)c1C(=O)Nc1cccc(Cl)c1 [I-004] | 80 | 90 | 100 | 80 | 100 | 100 | 100 | 100 | – | – | –
2 | Cc1nn(C)c(-c2ccc(F)cc2Cl)c1C(=O)Nc1cc(F)ccc1F [I-008] | 100 | 90 | 100 | 100 | 100 | 80 | 100 | 100 | – | – | –
3 | Cc1ccccc1NC(=O)c1c(C)nn(C)c1-c1ccc(F)cc1Cl [I-016] | – | 100 | 100 | 100 | 100 | – | 100 | 100 | 80 | 100 | 100
4 | Cc1nn(C)c(-c2ccc(F)cc2Cl)c1C(=O)Nc1cccc(F)c1 [I-027] | – | 100 | 100 | 100 | 100 | – | 100 | 100 | 100 | 100 | 100
5 | Cc1cccc(Cl)c1NC(=O)c1c(C)nn(C)c1-c1ccc(F)cc1Cl [I-028] | – | 100 | 100 | 100 | 100 | – | 100 | 100 | 100 | 100 | 100
6 | Cc1nn(C)c(-c2ccc(F)cc2Cl)c1C(=O)Nc1ccccc1Cl [I-029] | – | 100 | – | 100 | 100 | 100 | 100 | 100 | – | – | –
7 | Cc1cccc(NC(=O)c2c(C)nn(C)c2-c2ccc(F)cc2Cl)c1C [I-030] | – | 100 | 100 | 100 | 100 | – | 100 | 100 | 100 | 90 | 100
